The values below come from patent US20240239782A1, “SULFATE CRYSTALS OF MELANOCORTIN RECEPTOR AGONIST COMPOUND AND METHOD OF PRODUCING SAME” (LG CHEM, LTD., priority 2021, published 2024).

The structures appear in SMILES notation.

The procedure of the data set: Solubility indicates the result of measurement based on the final volume of water added to a sample when it is visually confirmed that the sample is completely dissolved by adding water to the sample. The solubility of the actual sample may be higher than the measured solubility. Solubility was measured based on the final volume of water added to a sample when it was visually confirmed that the sample was completely dissolved by adding water to the sample.

As to `CC(C)C(=O)N([C@H]1C[C@@H](C(=O)N2CCOCC2)N(C(=O)[C@@H]2CN(C(C)(C)C)C[C@H]2c2ccc(Cl)cc2)C1)[C@H]1CC[C@@H](C)CC1.O=S(=O)(O)O` [Example 2, N-((3S,5S)-1-((3S,4R)-1-(tert-butyl)-4-(4-chlorophenyl)pyrrolidine-3-carbonyl)-5-(morpholine-4-carbonyl)pyrrolidin-3-yl)-N-((1 s,4R)-4-methylcyclohexyl)isobutyramide sulfate], the solubility result is given as “more than 56 mg/mL”.
